Measurements published in patent US11161839B2, “2-quinolone derived inhibitors of BCL6” (Cancer Research Technology Limited, priority 2017, dated 2021).

Molecular target: human BCL6 BTB domain (Trx-6xHis-BCL6) (Homo sapiens (Human), UniProt P41182)
Assay: HTRF in vitro assay (BCL6 BTB domain / BCOR-AF633 peptide)
Format: binding
[1] = further generated data (Table 1b), 1 nM Trx-6xHis-BCL6, 0.5 nM anti-6xHis-Terbium cryptate
[2] = initially generated data (Table 1a), 10 nM Trx-6xHis-BCL6, 1 nM anti-6xHis-Terbium cryptate

Method: The % inhibition at each concentration was calculated by normalising FRET ratio to the appropriate high (DMSO with all reagents) and low (DMSO without BCL6) controls.

With `C[C@@H](Nc1cc(=O)n(C)c2ccc(Nc3cc(N4CCC(C(=O)N(C)C)CC4)ncc3Cl)cc12)C1CC1` [Example 6i, (R)-1-(5-chloro-4-((4-((1-cyclopropylethyl)amino)-1-methyl-2-oxo-1,2-dihydroquinolin-6-yl)amino)pyridin-2-yl)-N,N-dimethylpiperidine-4-carboxamide] the “HTRF pIC50” value [1] was 6.35.

In the case of `COc1cc(Nc2ccnc(Cl)c2C#N)cc2c(NC(C)(C)c3ncccn3)cc(=O)n(C)c12` [Example 10r, 2-chloro-4-((8-methoxy-1-methyl-2-oxo-4-((2-(pyrimidin-2-yl)propan-2-yl)amino)-1,2-dihydroquinolin-6-yl)amino)nicotinonitrile], the “HTRF pIC50” value [1] is reported as 6.32.

With `Cc1nc(C(C)Nc2cc(=O)n(C)c3ccc(Nc4ccnc(Cl)c4C#N)cc23)no1` (stereo not drawn) [Example 1h, 2-chloro-4-[[1-methyl-4-[1-(5-methyl-1,2,4-oxadiazol-3-yl)ethylamino]-2-oxo-6-quinolyl]amino]pyridine-3-carbonitrile] the “HTRF pIC50” value [1] was 6.38 and the “HTRF pIC50” value [2] was 6.40.

`C#CCCNC(=O)[C@@H](C)Nc1cc(=O)n(C)c2ccc(Nc3ccnc(Cl)c3C#N)cc12` [Example 3f, (R)-N-(But-3-yn-1-yl)-2-((6-((2-chloro-3-cyanopyridin-4-yl)amino)-1-methyl-2-oxo-1,2-dihydroquinolin-4-yl)amino)propanamide] was tested, and the “HTRF pIC50” value [1] was 6.71 and the “HTRF pIC50” value [2] was 6.48.

With `Cc1cc(C)n(-c2ncc(Cl)c(Nc3ccc4c(c3)c(NC(C)c3ncccn3)cc(=O)n4C)n2)n1` (stereo not drawn) [Example 14f, 6-((5-chloro-2-(3,5-dimethyl-1H-pyrazol-1-yl)pyrimidin-4-yl)amino)-1-methyl-4-((1-(pyrimidin-2-yl)ethyl)amino)quinolin-2(1H)-one] the “HTRF pIC50” value [1] was 6.49.

`C[C@@H]1CN(c2ncc(Cl)c(Nc3ccc4c(c3)c(N[C@H](C)C3CC3)cc(=O)n4C)n2)C[C@H](C)O1` [Example 17d, 6-((5-chloro-2-((2S,6R)-2,6-dimethylmorpholino)pyrimidin-4-yl)amino)-4-(((R)-1-cyclopropylethyl)amino)-1-methylquinolin-2(1H)-one:formic acid (1:1)] was tested, and the “HTRF pIC50” value [1] was 6.19.

For `Cn1c(=O)nc(NC(C)(C)c2ncccn2)c2cc(Nc3nc(N4CCC(F)(F)C(CO)C4)ncc3Cl)ccc21` (stereo not drawn) [Example 12i, 6-((5-chloro-2-(4,4-difluoro-3-(hydroxymethyl)piperidin-1-yl)pyrimidin-4-yl)amino)-1-methyl-4-((2-(pyrimidin-2-yl)propan-2-yl)amino)quinazolin-2(1H)-one], the “HTRF pIC50” value [1] was 7.32.

In the case of `COCCNC(=O)[C@@H](C)Nc1cc(=O)n(C)c2ccc(Nc3ccnc(Cl)c3C#N)cc12` [Example 3e, (R)-2-((6-((2-chloro-3-cyanopyridin-4-yl)amino)-1-methyl-2-oxo-1,2-dihydroquinolin-4-yl)amino)-N-(2-methoxyethyl)propanamide], the “HTRF pIC50” value [1] is reported as 6.42 and the “HTRF pIC50” value [2] is reported as 6.59.

`CNC(=O)c1cc(Nc2ccc3c(c2)c(NC2(C#N)CC2)cc(=O)n3C)c(C#N)c(Cl)n1` [Example 24a, 6-chloro-5-cyano-4-((4-((1-cyanocyclopropyl)amino)-1-methyl-2-oxo-1,2-dihydroquinolin-6-yl)amino)-N-methylpicolinamide] was tested, and the “HTRF pIC50” value [1] was 6.84.

For `Cc1n[nH]c(C(C)Nc2cc(=O)n(C)c3ccc(Nc4ccnc(Cl)c4C#N)cc23)n1` (stereo not drawn) [Example 3c, 2-Chloro-4-((1-methyl-4-((1-(3-methyl-1H-1,2,4-triazol-5-yl)ethyl)amino)-2-oxo-1,2-dihydroquinolin-6-yl)amino)nicotinonitrile], the “HTRF pIC50” value [1] was 6.50 and the “HTRF pIC50” value [2] was 6.65.

In the case of `CNC(=O)[C@@H](C)Nc1cc(=O)[nH]c2ccc(Nc3ccnc(Cl)c3C#N)cc12` [Example 3p, (R)-2-((6-((2-chloro-3-cyanopyridin-4-yl)amino)-2-oxo-1,2-dihydroquinolin-4-yl)amino)-N-methylpropanamide], the “HTRF pIC50” value [1] is reported as 6.61 and the “HTRF pIC50” value [2] is reported as 6.61.

`Cn1c(=O)cc(NC2(C)CC2)c2cc(Nc3cc(C(=O)O)nc(Cl)c3C#N)ccc21` [Example 2c, 6-chloro-5-cyano-4-[[1-methyl-4-[(1-methylcyclopropyl)amino]-2-oxo-6-quinolyl]amino]pyridine-2-carboxylic acid] was tested, and the “HTRF pIC50” value [1] was 6.38 and the “HTRF pIC50” value [2] was 6.36.

With `CC(Nc1cc(=O)n(C)c2ccc(Nc3ccnc(Cl)c3C#N)cc12)c1nccs1` (stereo not drawn) [Example 1s, 2-chloro-4-[[1-methyl-2-oxo-4-(1-thiazol-2-ylethylamino)-6-quinolyl]amino]pyridine-3-carbonitrile] the “HTRF pIC50” value [1] was 6.07 and the “HTRF pIC50” value [2] was 6.03.

For `COCC(C)(C)Nc1cc(=O)n(C)c2ccc(Nc3cc(C(=O)O)nc(Cl)c3C#N)cc12` [Example 9m, 6-chloro-5-cyano-4-((4-((1-methoxy-2-methylpropan-2-yl)amino)-1-methyl-2-oxo-1,2-dihydroquinolin-6-yl)amino)picolinic acid], the “HTRF pIC50” value [1] was 7.01.

In the case of `C[C@@H]1CN(c2cc(Nc3ccc4c(c3)c(N[C@H](C)C3CC3)cc(=O)n4C)c(Cl)cn2)C[C@H](C)O1` [Example 6h, 6-((5-chloro-2-((2S,6R)-2,6-dimethylmorpholino)pyridin-4-yl)amino)-4-(((R)-1-cyclopropylethyl)amino)-1-methylquinolin-2(1H)-one], the “HTRF pIC50” value [1] is reported as 6.00.

In the case of `C[C@@H]1C[C@H](C)CN(c2ncc(Cl)c(Nc3ccc4c(c3)c(NC(C)(C)c3ncccn3)nc(=O)n4C)n2)C1` [Example 26g, 6-[[5-chloro-2-[(3R,5S)-3,5-dimethyl-1-piperidyl]pyrimidin-4-yl]amino-1-methyl-4-[(1-methyl-1-pyrimidin-2-yl)ethyl)amino]quinazolin-2-one:formic acid (1:1)], the “HTRF pIC50” value [1] is reported as 6.54.

In the case of `C[C@@H](Nc1cc(=O)n(C)c2ccc(Nc3ccnc(Cl)c3C#N)cc12)C(=O)NCCc1cnn(C)c1` [Example 3m, (R)-2-((6-((2-Chloro-3-cyanopyridin-4-yl)amino)-1-methyl-2-oxo-1,2-dihydroquinolin-4-yl)amino)-N-(2-(1-methyl-1H-pyrazol-4-yl)ethyl)propanamide], the “HTRF pIC50” value [2] is reported as 6.06.

In the case of `C[C@@H](Nc1cc(=O)n(C)c2ccc(Nc3cc(C(=O)O)nc(Cl)c3C#N)cc12)C1CC1` [Example 9b, (R)-6-chloro-5-cyano-4-((4-((1-cyclopropylethyl)amino)-1-methyl-2-oxo-1,2-dihydroquinolin-6-yl)amino)picolinic acid], the “HTRF pIC50” value [1] is reported as 7.13.

`Cn1c(=O)cc(NC2(CO)CC2)c2cc(Nc3cc(C(=O)O)nc(Cl)c3C#N)ccc21` [Example 9k, 6-chloro-5-cyano-4-((4-((1-(hydroxymethyl)cyclopropyl)amino)-1-methyl-2-oxo-1,2-dihydroquinolin-6-yl)amino)picolinic acid] was tested, and the “HTRF pIC50” value [1] was 6.35.

With `C[C@H](Nc1cc(=O)n(C)c2ccc(Nc3cc(C(=O)O)nc(Cl)c3C#N)cc12)C1CC1` [Example 9d, (S)-6-chloro-5-cyano-4-((4-((1-cyclopropylethyl)amino)-1-methyl-2-oxo-1,2-dihydroquinolin-6-yl)amino)picolinic acid] the “HTRF pIC50” value [1] was 6.13.

For `Cn1c(=O)cc(NC2(C#N)CC2)c2cc(Nc3cc(C(=O)O)nc(Cl)c3C#N)ccc21` [Example 9g, 6-chloro-5-cyano-4-((4-((1-cyanocyclopropyl)amino)-1-methyl-2-oxo-1,2-dihydroquinolin-6-yl)amino)picolinic acid], the “HTRF pIC50” value [1] was 7.05.

`CC(Nc1cc(=O)n(C)c2ccc(Nc3nc(N4CCc5nn(C)cc5C4)ncc3Cl)cc12)c1ncccn1` (stereo not drawn) [Example 17k, 6-((5-chloro-2-(2-methyl-2,4,6,7-tetrahydro-5H-pyrazolo[4,3-c]pyridin-5-yl)pyrimidin-4-yl)amino)-1-methyl-4-((1-(pyrimidin-2-yl)ethyl)amino)quinolin-2(1H)-one] was tested, and the “HTRF pIC50” value [1] was 6.11.

`Cn1c(=O)cc(NCCF)c2cc(Nc3cc(C(=O)O)nc(Cl)c3C#N)ccc21` [Example 9c, 6-chloro-5-cyano-4-((4-((2-fluoroethyl)amino)-1-methyl-2-oxo-1,2-dihydroquinolin-6-yl)amino)picolinic acid] was tested, and the “HTRF pIC50” value [1] was 6.05.

`CNC(=O)c1cc(Nc2ccc3c(c2)c(NC2CCC2OC)cc(=O)n3C)c(C#N)c(Cl)n1` (racemic) [Example 23b, rac-6-chloro-5-cyano 4-((4-(((1R,2R)-2-methoxycyclobutyl)amino)-1-methyl-2-oxo-1,2-dihydroquinolin-6-yl)amino)-N-methylpicolinamide or rac-6-chloro-5-cyano-4-((4-(((1R,2S)-2-methoxycyclobutyl)amino)-1-methyl-2-oxo-1,2-dihydroquinolin-6-yl)amino)-N-methylpicolinamide] showed an IC50 (further generated data (Table 1b), 1 nM Trx-6xHis-BCL6, 0.5 nM anti-6xHis-Terbium cryptate, read-out: HTRF pIC50 (converted)) of 468 nM.

In the case of `Cc1ccnc(C(C)Nc2cc(=O)n(C)c3ccc(Nc4ccnc(Cl)c4C#N)cc23)n1` (stereo not drawn) [Example 1i, 2-chloro-4-[[1-methyl-4-[1-(4-methylpyrimidin-2-yl)ethylamino]-2-oxo-6-quinolyl]amino]pyridine-3-carbonitrile], the “HTRF pIC50” value [1] is reported as 6.26 and the “HTRF pIC50” value [2] is reported as 6.31.

`CC(Nc1cc(=O)n(C)c2ccc(Nc3ccnc(Cl)c3C#N)cc12)c1ccncn1` (stereo not drawn) [Example 1q, 2-chloro-4-[[1-methyl-2-oxo-4-(1-pyrimidin-4-ylethylamino)-6-quinolyl]amino]pyridine-3-carbonitrile] was tested, and the “HTRF pIC50” value [1] was 6.29 and the “HTRF pIC50” value [2] was 6.10.

`Cc1nccc(Nc2ccc3c(c2)c(NC(C)c2ncccn2)cc(=O)n3C)c1C#N` (stereo not drawn) [Example 18a, 2-methyl-4-((1-methyl-2-oxo-4-((1-(pyrimidin-2-yl)ethyl)amino)-1,2-dihydroquinolin-6-yl)amino)nicotinonitrile] was tested, and the “HTRF pIC50” value [1] was 6.30.
